# Read-outs that look alike come from different tables or passages of the source.
# Assays:
# [1] = biological target: GDP-bound HRAS wild-type protein (Homo sapiens, UniProt P01112); assay: Binding to HRAS by surface plasmon resonance (SPR), Single Cycle Kinetics; conditions: SPR; for HRAS/KRAS (ratio of KD value for HRAS to KD value for KRAS): GDP-bound HRAS wild-type protein vs GDP-bound KRAS wild-type protein
# [2] = biological target: GDP-bound NRAS wild-type protein (Homo sapiens, UniProt P01111); assay: Binding to NRAS by surface plasmon resonance (SPR), Single Cycle Kinetics; conditions: SPR; for NRAS/KRAS (ratio of KD value for NRAS to KD value for KRAS): GDP-bound NRAS wild-type protein vs GDP-bound KRAS wild-type protein
# Sequence of GDP-bound NRAS wild-type protein (P01111 whole entry): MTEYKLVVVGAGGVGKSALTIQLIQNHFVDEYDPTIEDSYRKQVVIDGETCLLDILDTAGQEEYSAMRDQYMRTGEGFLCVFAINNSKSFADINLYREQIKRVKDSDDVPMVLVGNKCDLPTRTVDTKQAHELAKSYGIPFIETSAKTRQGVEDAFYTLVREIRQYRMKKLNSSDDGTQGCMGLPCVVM
# [3] = tested on: human lung cancer strain NCI-H441;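 note: cell proliferation inhibition after four days measured by CellTiter-Glo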
# [4] = biological target: GDP-bound KRAS wild-type protein (Homo sapiens, UniProt P01116); assay: Binding to KRAS by surface plasmon resonance (SPR), Single Cycle Kinetics; conditions: SPR, Single Cycle Kinetics
# Sequence of GDP-bound KRAS wild-type protein (P01116 whole entry): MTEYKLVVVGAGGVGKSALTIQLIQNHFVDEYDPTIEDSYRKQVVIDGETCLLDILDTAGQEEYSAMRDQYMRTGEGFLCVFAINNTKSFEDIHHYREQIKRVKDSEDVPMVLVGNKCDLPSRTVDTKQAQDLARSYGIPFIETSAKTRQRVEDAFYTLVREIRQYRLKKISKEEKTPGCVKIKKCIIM
# [5] = 1:1 binding model, GDP-bound KRAS wild-type protein, read-out: KRAS KD
# [6] = GDP-bound KRAS wild-type protein, read-out: KRAS KD
# [7] = read-out: NCI-H441 cell proliferation inhibitory activity, 50% proliferation inhibitory concentration (IC50 value), NCI-H441, four days, CellTiter-Glo
# [8] = 1:1 binding model, read-out: KD value with respect to GDP-bound KRAS wild-type protein
# Sequence of GDP-bound HRAS wild-type protein (P01112 whole entry): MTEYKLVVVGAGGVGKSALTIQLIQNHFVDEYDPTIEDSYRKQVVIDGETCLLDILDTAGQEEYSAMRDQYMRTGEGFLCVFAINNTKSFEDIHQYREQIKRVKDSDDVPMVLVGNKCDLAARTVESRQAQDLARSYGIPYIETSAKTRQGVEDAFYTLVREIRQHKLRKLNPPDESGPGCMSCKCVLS
SMILES,IC50 [3] [nM],"Kd [4, 5] [nM]","Kd [4, 6] [nM]",HRAS/KRAS (ratio of KD value for HRAS to KD value for KRAS) ([1]; KD ratio class),NRAS/KRAS (ratio of KD value for NRAS to KD value for KRAS) ([2]; KD ratio class),HRAS/KRAS (ratio of KD value for HRAS to KD value for KRAS) [1],NRAS/KRAS (ratio of KD value for NRAS to KD value for KRAS) [2],ratio of the KD value with respect to GDP-bound HRAS wild-type protein to the KD value with respect to KRAS [1],ratio of the KD value with respect to GDP-bound NRAS wild-type protein to the KD value with respect to KRAS [2],"IC50 [3, 7] [nM]","Kd [4, 8] [nM]"
"CCCOC[C@H]1C(=O)N[C@@H]([C@@H](C)CC)C(=O)N(C)CC(=O)N(C)[C@H]2C/C=C\CCN(C2=O)[C@@H](Cc2ccc(C(F)(F)F)cc2)C(=O)N(C)CC(=O)N[C@@H](CCc2cc(F)c(C(F)(F)F)c(F)c2)C(=O)N2C[C@H](OCC)C[C@H]2C(=O)NC2(CCC2)C(=O)N(C)[C@@H](C2CCCC2)C(=O)N(C)[C@H](C(=O)N(C)C)CC(=O)N1C [PP1395, (2S,8S,12R,14S,20S,23S,27S,30S,36S,38Z)-20-cyclopentyl-8-[2-[3,5-difluoro-4-(trifluoromethyl)phenyl]ethyl]-12-ethoxy-N,N,4,19,22,26,32,35-octamethyl-30-[(1S)-1-methylpropyl]-3,6,9,15,18,21,25,28,31,34,42-undecaoxo-27-(propoxymethyl)-2-[[4-(trifluoromethyl)phenyl]methyl]spiro[1,4,7,10,16,19,22,26,29,32,35-undecazatricyclo[34.5.1.0^10,14]dotetracont-38-ene-17,1′-cyclobutane]-23-carboxamide]",3.8,0.063,,B (a compound having 3 or more and less than 10 is denoted as B),A (a compound having 10 or more and less than 20 is denoted as A),,,,,,
CCO[C@@H]1C[C@H]2C(=O)NC3(CCC3)C(=O)N(C)[C@@H](C3CCCC3)C(=O)N(C)[C@H](C(=O)N3CCOCC3)CC(=O)N(C)[C@@H](CC)C(=O)N[C@@H]([C@@H](C)CC)C(=O)N(C)CC(=O)N(C)[C@H]3CCCCCN(C3=O)[C@@H](Cc3ccc(F)cc3)C(=O)N(C)CC(=O)N[C@@H](CCc3cc(F)c(C(F)(F)F)c(F)c3)C(=O)N2C1 [PP1176],50,,0.13,,,B (a compound having 3 or more and less than 10 is denoted as B),B (a compound having 3 or more and less than 10 is denoted as B),,,,
CC[C@H](C)[C@@H]1NC(=O)[C@@H]2CCCCc3ccc(cc3)C[C@@H](C(=O)N(C)CC(=O)N[C@@H](CCc3ccc(C(F)(F)F)c(OC)c3)C(=O)N3CC4(CC4)C[C@H]3C(=O)NC3(CC(C)(C)C3)C(=O)N(C)[C@@H](C3CCCC3)C(=O)N(C)[C@H](C(=O)N(C)CC)CC(=O)N2C)N2CC/C=C\C[C@@H](C2=O)N(C)C(=O)CN(C)C1=O [PP3081],,,,,,B (a compound having 3 or more and less than 10 is denoted as B),A (a compound having 10 or more and less than 20 is denoted as A),B (a compound having 3 or more and less than 10 is denoted as B),A (a compound having 10 or more and less than 20 is denoted as A),1.9,0.068
"CCC[C@H]1C(=O)N[C@@H]([C@@H](C)CC)C(=O)N2CCC[C@H]2C(=O)N(C)[C@H]2C/C=C\CCN(C2=O)[C@@H](Cc2ccc(C)cc2)C(=O)N(C)CC(=O)N[C@@H](CCc2cc(F)c(C(F)(F)F)c(F)c2)C(=O)N2C[C@H](OCC)C[C@H]2C(=O)N(C)C2(CCC2)C(=O)N(C)[C@@H](C2CCCC2)C(=O)N(C)[C@H](C(=O)N2CCCCC2)CC(=O)N1C [PP3115, (1S,4S,10S,13S,17S,20S,26S,28R,32S,38S,42Z)-20-cyclopentyl-32-[2-[3,5-difluoro-4-(trifluoromethyl)phenyl]ethyl]-28-ethoxy-2,14,18,21,24,36-hexamethyl-10-[(1S)-1-methylpropyl]-17-(piperidine-1-carbonyl)-13-propyl-38-(p-tolylmethyl)spiro[2,8,11,14,18,21,24,30,33,36,39-undecazatetracyclo[37.5.1.0^4,8.0^26,30]pentatetracont-42-ene-23,1′-cyclobutane]-3,9,12,15,19,22,25,31,34,37,45-undecone]",,,2.6,,,B (a compound having 3 or more and less than 10 is denoted as B),A (a compound having 10 or more and less than 20 is denoted as A),B (a compound having 3 or more and less than 10 is denoted as B),A (a compound having 10 or more and less than 20 is denoted as A),5.7,2.6
CCOC[C@H]1C(=O)N[C@@H]([C@@H](C)CC)C(=O)N(C)CC(=O)N(C)[C@H]2C/C=C\CCN(C2=O)[C@@H](Cc2ccc(C)cc2)C(=O)N(C)CC(=O)N[C@@H](CCc2ccc(C(F)(F)F)c(OC)c2)C(=O)N2C[C@@H](C)C[C@H]2C(=O)NC2(CC(C)(C)C2)C(=O)N(C)[C@@H](C2CCCC2)C(=O)N(C)[C@H](C(=O)N(CC)CC)CC(=O)N1C [PP2405],8.6,,0.31,,,A (a compound having 10 or more and less than 20 is denoted as A),A (a compound having 10 or more and less than 20 is denoted as A),,,,
CCO[C@@H]1C[C@H]2C(=O)NC3(CCC3)C(=O)N(C)[C@@H](C(CC)CC)C(=O)N(C)[C@H](C(=O)N3CCCC3)CC(=O)N(C)[C@@H](COC)C(=O)N[C@@H]([C@@H](C)CC)C(=O)N(C)CC(=O)N(C)[C@H]3C/C=C\CCN(C3=O)[C@@H](CC3CCC(F)(F)CC3)C(=O)N(C)CC(=O)N[C@@H](CCc3cc(F)c(C(F)(F)F)c(F)c3)C(=O)N2C1 [PP1440],69.7,0.35,,A (a compound having 10 or more and less than 20 is denoted as A),AA (a compound having 20 or more is denoted as AA),,,,,,

# Further lines, with some results ahead:
IC50 [3] [nM],"Kd [4, 5] [nM]","Kd [4, 6] [nM]",SMILES,HRAS/KRAS (ratio of KD value for HRAS to KD value for KRAS) ([1]; KD ratio class),NRAS/KRAS (ratio of KD value for NRAS to KD value for KRAS) ([2]; KD ratio class),HRAS/KRAS (ratio of KD value for HRAS to KD value for KRAS) [1],NRAS/KRAS (ratio of KD value for NRAS to KD value for KRAS) [2],ratio of the KD value with respect to GDP-bound HRAS wild-type protein to the KD value with respect to KRAS [1],ratio of the KD value with respect to GDP-bound NRAS wild-type protein to the KD value with respect to KRAS [2],"IC50 [3, 7] [nM]","Kd [4, 8] [nM]"
25.4,0.16,,CCO[C@@H]1C[C@H]2C(=O)NC3(CCC3)C(=O)N(C)[C@@H](C(CC)CC)C(=O)N(C)[C@H](C(=O)N(C)C)CC(=O)N(C)[C@@H](COC)C(=O)N[C@@H]([C@@H](C)CC)C(=O)N(C)CC(=O)N(C)[C@H]3C/C=C\CCN(C3=O)[C@@H](Cc3ccc(C(F)(F)F)cc3)C(=O)N(C)CC(=O)N[C@@H](CCc3cc(F)c(C(F)(F)F)c(F)c3)C(=O)N2C1 [PP1205],A (a compound having 10 or more and less than 20 is denoted as A),AA (a compound having 20 or more is denoted as AA),,,,,,
5.8,,0.2,CCO[C@@H]1C[C@H]2C(=O)NC3(CC(C)(C)C3)C(=O)N(C)[C@@H](C3CCCC3)C(=O)N(C)[C@H](C(=O)N(CC)CC)CC(=O)N(C)[C@@H](COC)C(=O)N[C@@H]([C@@H](C)CC)C(=O)N(C)CC(=O)N(C)[C@H]3C/C=C\CCN(C3=O)[C@@H](Cc3ccc(C)cc3)C(=O)N(C)CC(=O)N[C@@H](CCc3ccc(C(F)(F)F)c(Cl)c3)C(=O)N2C1 [PP2400],,,A (a compound having 10 or more and less than 20 is denoted as A),A (a compound having 10 or more and less than 20 is denoted as A),,,,
140,,0.21,CC[C@H](C)[C@@H]1NC(=O)[C@H](CC)N(C)C(=O)C[C@@H](C(=O)N(C)C)N(C)C(=O)[C@H](C2CCCC2)N(C)C(=O)C2(CCC2)NC(=O)[C@H](COC)N(C)C(=O)[C@H](CCc2cc(F)c(C(F)(F)F)c(F)c2)NC(=O)CN(C)C(=O)[C@H](Cc2ccc(C(F)(F)F)cc2)N2CC/C=C\C[C@@H](C2=O)N(C)C(=O)CN(C)C1=O [PP1145],,,B (a compound having 3 or more and less than 10 is denoted as B),A (a compound having 10 or more and less than 20 is denoted as A),,,,

# — patent publication US20240158446A1, “CYCLIC COMPOUND HAVING SELECTIVE INHIBITORY ACTION ON KRAS OVER HRAS AND NRAS” (CHUGAI SEIYAKU KABUSHIKI KAISHA, priority 2021, published 2024)
